According to US4369120A, “Refrigeration liquid with leak indicator and process of using same” (priority 1981, dated 1983):
Entries after “also recorded” stand apart in the source; their conditions may differ.

Assays:
[1] = Sealed tube test of stability of dyes in refrigerant/refrigeration oil with metal coupons; format: physicochemical; conditions: for Stability, Mean Life: Table I, sealed tube data in R-12 at 350° F.; for stability as measured by the sealed tube test: text summary of Table I, 350° F.
Method: By reference to Table I below it can be appreciated that such ortho substitution has a remarkably beneficial effect on the stability of the dyes in the accelerated sealed tube test used for evaluation. The first three dyes listed, embodying the principles of this invention, routinely withstand in excess of twenty days in the sealed tube test at 350° F. (176.7° C.), equivalent to many years of normal use in a refrigeration system.
The sealed tube test serves as a method of evaluating in an accelerated manner interactions of materials found in a refrigeration system.
Glass tubes and all metal test coupons are scrupulously cleaned. Test refrigerants are distilled to minimize moisture contamination. Moisture is removed from the refrigeration test oil "Suniso" 3GS by subjecting the oil to a vacuum with slight stirring and heating. Ratios of refrigerant/refrigerant oil range from 1:1 to 1:2 by weight.
Refrigerant oil and representative metal coupons of copper #10AWG wire, Swedish valve stock steel, and aluminum metal sheet are placed in a glass tube along with the subject test dye material (0.25-1.0% wt/wt) dissolved in the refrigerant oil. Like samples without the subject dye are analyzed as controls.
The tube and its contents are chilled in a liquid nitrogen bath while the refrigerant is condensed into the tube via a calibrated manometer. The tube is sealed under a vacuum of at least 0.1 torr.
Glass tubes and contents are subjected to uniform heating in a bored aluminum block placed in a temperature-programmed oven.
The oven temperatures used vary according to the test refrigerant, as indicated:
The test is run for one of the following time periods: 5, 14, 21, 30 or 60 days.
The tube contents may be evaluated by several methods:
of these methods, the visual examination is the most rapid and the only qualitative method. Any color change in the subject dye coloration is noted when compared to a control sample.
The quantitative methods involve analysis for decomposition products of chloride as hydrochloric acid or organic products by gas chromatography, infrared spectroscopy, or mass spectroscopy. However, visual inspection and gas chromatography are widely used, and they were selected as standardization procedures for evaluation of sealed tube contents.
R-12 is chemically one of the more reactive refrigerants; thus, short term tests with refrigeration liquids containing this refrigerant admixed with a mineral oil yield the most rapid results. R-22 and R-502 are also used but the decomposition products are more difficult to analyze by gas chromatography. Ultimately the test material must pass interactions involving any of these refrigerants. The visual method can be used empirically on a pass-fail basis. As verified experimentally, visual results are considered as valid as instrumental methods.

[2] = Solubility of dyes in refrigeration oils; conditions: for Dye Solubility in refrigeration oil: room temperature (about 21° C.); for Oil Sol. In 3GS: Table I, Suniso 3GS refrigeration oil
Method: Manufacturers of refrigeration equipment generally demand that any refrigeration liquid satisfactorily pass such a sealed tube test before they approve the liquid for use in their equipment. In addition, the solubility of the various dyes in oil and in refrigerant were determined.
Solubility of various dyes in various refrigeration oils was carefully determined according to the following standardized procedure. An excess of the subject dye was added to a given weight (e.g., 100 g) of refrigerant oil. The mixture was stirred for one-half hour with mild heating, whereupon it was cooled to room temperature (about 21° C.) and transferred to a centrifuge tube. The mixture was centrifuged approximately 15 minutes at 1000 rpm. A sample of the supernatant liquid was decanted (1.00 g±0.01 g) and diluted to 100 ml volume with methylene chloride. Aliquot portions were taken and read against the principal absorption peaks by visible light spectroscopy. Wt/wt percentage concentrations were then calculated from proper standard curves.

[3] = Solubility of dyes in halocarbon refrigerants; format: physicochemical; conditions: for Refr. Sol. In R-12: Table I, refrigerant R-12
Method: Solubilities of various dyes in various halocarbon refrigerants were also determined according to the following standardized procedure. […] The R-11 was allowed to vaporize, leaving a known amount of dye in the bottom portion of the test tube. The tube was then attached to a charging apparatus containing a supply of a given halocarbon refrigerant and various amounts of the refrigerant were charged into the tube while chilling the latter by immersion in liquid nitrogen. The tube containing the dye/refrigerant mixture was sealed under vacuum, allowed to reach room temperature (about 21° C.) and rotated for several hours. Visual inspection of the tube was made at several temperatures to note the degree of dissolution. The procedure was improved over previously used methods in that an exact predetermined amount of dye and refrigerant were made to interact, requiring fewer weighings. Finally, it became possible to use the same tube to check solubility at several different temperatures.

[4] = 400° F. (204.4° C.), reported in U.S. Pat. No. 3,770,640; cited from earlier work

Row | Structure (SMILES) | Stability, Mean Life [1] | stability as measured by the sealed tube test [1] | solubility in the refrigeration oil (in words) [2] | Oil Sol. In 3GS [2] | solubility in the halocarbon refrigerant (in words) [3] | Solubility in refrigerant ([3]; R-12, 21° C.) | Solubility in refrigerant ([3]; R-22, 21° C.) | Solubility in refrigerant ([3]; R-502, 21° C.) | Refr. Sol. In R-12 [3] | other results
1 | CCc1cccc(C)c1Nc1ccc(Nc2c(C)cccc2CC)c2c1C(=O)c1ccccc1C2=O [Dye No. 1-35, 1,4-bis(2-methyl-6-ethylanilino)anthraquinone] | 26.2 days | > 20 days | relatively high solubility | 4.8% | sufficient solubility; also recorded: substantially greater solubility in the various refrigerants than the other dyes tested | 0.2 %(wt/wt) | 0.4 %(wt/wt) | 0.1 %(wt/wt) | 0.2% | stability in the sealed tube test at 402° F. (in words) ([1]; 402° F. (205.5° C.), compared with 350° F.): virtually as stable at 402° F. (205.5° C.) as it is at 350° F. (176.7° C.); also recorded: excellent stability of dye No. 1-35 persists even at much higher test temperatures; Mean Life, Days at 350° F. ([1]; Sample C, purity 97%): 24.0 days; Mean Life, Days at 350° F. ([1]; Sample D, purity 95%): 24.0 days; Mean Life, Days at 350° F. ([1]; Sample E, purity 89%): 17.0 days; Mean Life, Days at 350° F. ([1]; Sample F, purity 65%): 5.0 days; Mean Life, Days at 350° F. ([1]; Samples A and B, purity 100% (by definition)): 26.2 days; Dye Solubility in refrigeration oil ([2]; DuPont Zephron 150 (alkyl benzene type)): 5.3 %(wt/wt); Dye Solubility in refrigeration oil ([2]; Suniso 3GS): 4.8 %(wt/wt); Dye Solubility in refrigeration oil ([2]; Suniso 4GS): 4.6 %(wt/wt); Dye Solubility in refrigeration oil ([2]; Suniso 5GS): 4.8 %(wt/wt); Dye Solubility in refrigeration oil ([2]; Texaco Cappella D): 4.8 %(wt/wt); Dye Solubility in refrigeration oil ([2]; Texaco Cappella E): 4.9 %(wt/wt); solubility in representative naphthenic and alkyl benzene refrigeration oils ([2]; summary of Table II): about 5%; Solubility in refrigerant ([3]; R-11, 21° C.): 0.2 %(wt/wt); Solubility in refrigerant ([3]; R-12, 0° C.): 0.2 %(wt/wt); Solubility in refrigerant ([3]; R-12, -20° C.): 0.2 %(wt/wt); Solubility in refrigerant ([3]; R-22, 0° C.): 0.4 %(wt/wt); Solubility in refrigerant ([3]; R-22, -20° C.): 0.4 %(wt/wt); Solubility in refrigerant ([3]; R-502, 0° C.): < 0.1 %(wt/wt); Solubility in refrigerant ([3]; R-502, -20° C.): < 0.1 %(wt/wt)
2 | Cc1cccc(C)c1Nc1ccc(Nc2c(C)cccc2C)c2c1C(=O)c1ccccc1C2=O [Dye No. 2-31, 1,4-Bis(2,6-dimethylanilino)-anthraquinone] | 22.4 days | > 20 days | relatively high solubility | 0.1% | sufficient solubility | < 0.02 %(wt/wt) | 0.04 %(wt/wt) | < 0.02 %(wt/wt) | < 0.1% | 
3 | CCc1cc(CC)c(Nc2ccc(Nc3c(CC)cc(CC)cc3CC)c3c2C(=O)c2ccccc2C3=O)c(CC)c1 [1,4-bis(2,4,6-triethylanilino)anthraquinone] |  |  |  |  |  |  |  |  |  | stability in the sealed tube test at 400° F. (in words) [4]: very unstable; also recorded: so poor as to make this dye commercially unacceptable
4 | Cc1cc(C)c(Nc2ccc(Nc3c(C)cc(C)cc3C)c3c2C(=O)c2ccccc2C3=O)c(C)c1 [Dye No. 3-25, 1,4-Bis(mesidino)anthraquinone] | 24.3 days | > 20 days | relatively high solubility | 0.55% | sufficient solubility |  |  |  | < 0.1% | 
